Biological target: T1, Nav1.7 voltage-gated sodium channel (Homo sapiens, UniProt Q15858)
T1 construct: Gene(s) encoding the full-length protein of the voltage-gated sodium channel of interest are cloned and expressed; expressed in transfected cells
Assay: Whole-cell voltage clamp electrophysiology assay
Assay type: cell-based
Conditions: cells stably expressing the voltage-gated sodium channel of interest
In short: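 Cells expressing full-length channel, exposed to drug by integrated pipetting on automated patch-clamp platforms or by microperfusion in conventional whole-cell patch clamp. Channels activated by a voltage protocol depolarising from a defined holding potential; buffers per platform manufacturer.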

T1 sequence (Q15858 whole entry): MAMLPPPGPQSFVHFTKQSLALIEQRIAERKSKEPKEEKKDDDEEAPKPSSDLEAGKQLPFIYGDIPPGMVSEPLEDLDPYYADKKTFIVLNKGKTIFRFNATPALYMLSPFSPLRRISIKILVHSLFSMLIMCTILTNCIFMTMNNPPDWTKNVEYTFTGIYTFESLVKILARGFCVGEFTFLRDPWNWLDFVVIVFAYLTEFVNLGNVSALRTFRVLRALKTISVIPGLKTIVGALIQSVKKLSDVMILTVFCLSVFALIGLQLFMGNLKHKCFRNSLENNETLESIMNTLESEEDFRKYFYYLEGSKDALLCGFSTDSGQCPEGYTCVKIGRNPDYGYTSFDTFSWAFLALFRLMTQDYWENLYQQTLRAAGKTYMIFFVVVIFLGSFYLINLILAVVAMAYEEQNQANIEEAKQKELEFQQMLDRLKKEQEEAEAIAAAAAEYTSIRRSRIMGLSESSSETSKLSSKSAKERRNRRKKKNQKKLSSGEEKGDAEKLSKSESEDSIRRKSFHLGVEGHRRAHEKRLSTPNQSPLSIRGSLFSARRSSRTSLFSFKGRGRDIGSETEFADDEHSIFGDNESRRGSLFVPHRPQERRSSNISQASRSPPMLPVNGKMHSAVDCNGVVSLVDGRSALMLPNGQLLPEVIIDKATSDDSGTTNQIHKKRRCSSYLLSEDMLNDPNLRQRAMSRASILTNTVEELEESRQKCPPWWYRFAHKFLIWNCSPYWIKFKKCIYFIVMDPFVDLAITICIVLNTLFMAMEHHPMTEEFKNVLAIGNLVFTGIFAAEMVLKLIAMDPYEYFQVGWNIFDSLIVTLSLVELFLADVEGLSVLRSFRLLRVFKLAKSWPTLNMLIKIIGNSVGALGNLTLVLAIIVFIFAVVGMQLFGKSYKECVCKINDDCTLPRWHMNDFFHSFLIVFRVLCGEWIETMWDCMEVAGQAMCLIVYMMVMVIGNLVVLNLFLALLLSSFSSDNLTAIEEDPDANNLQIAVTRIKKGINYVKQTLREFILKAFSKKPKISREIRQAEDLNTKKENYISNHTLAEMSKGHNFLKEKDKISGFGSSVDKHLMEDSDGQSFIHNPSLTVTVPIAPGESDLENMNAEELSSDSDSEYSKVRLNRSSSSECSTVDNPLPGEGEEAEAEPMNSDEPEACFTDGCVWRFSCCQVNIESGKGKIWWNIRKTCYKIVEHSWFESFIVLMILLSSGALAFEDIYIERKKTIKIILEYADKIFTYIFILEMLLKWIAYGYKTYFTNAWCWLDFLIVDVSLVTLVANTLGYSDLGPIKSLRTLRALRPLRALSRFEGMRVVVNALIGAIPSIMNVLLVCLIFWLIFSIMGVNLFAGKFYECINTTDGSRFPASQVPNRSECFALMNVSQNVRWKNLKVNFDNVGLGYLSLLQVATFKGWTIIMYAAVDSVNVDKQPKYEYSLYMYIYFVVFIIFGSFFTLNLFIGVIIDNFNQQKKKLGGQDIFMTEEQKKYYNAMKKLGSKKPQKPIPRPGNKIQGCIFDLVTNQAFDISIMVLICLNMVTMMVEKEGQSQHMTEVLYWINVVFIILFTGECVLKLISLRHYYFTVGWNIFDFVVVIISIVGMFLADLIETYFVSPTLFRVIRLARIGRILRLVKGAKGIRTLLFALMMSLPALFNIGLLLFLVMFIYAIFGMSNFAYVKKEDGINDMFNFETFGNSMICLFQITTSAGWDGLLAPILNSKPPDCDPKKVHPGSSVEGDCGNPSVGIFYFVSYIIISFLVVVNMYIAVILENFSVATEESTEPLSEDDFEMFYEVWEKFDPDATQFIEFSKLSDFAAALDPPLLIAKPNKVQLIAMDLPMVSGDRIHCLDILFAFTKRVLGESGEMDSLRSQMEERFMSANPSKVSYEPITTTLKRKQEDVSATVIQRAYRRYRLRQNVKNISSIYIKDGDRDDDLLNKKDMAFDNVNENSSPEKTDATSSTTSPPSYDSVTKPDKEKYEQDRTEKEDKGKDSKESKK

Row | IC50 [nM] | SMILES
1 | 501 | COc1ncc(-c2cccc3c2C[C@H](NC(=O)c2ccc(OCCOCC(F)(F)F)nc2)CC3)cn1 [Example 162, N-[(2R)-8-(2-methoxypyrimidin-5-yl)-1,2,3,4-tetrahydronaphthalen-2-yl]-6-[2-(2,2,2-trifluoroethoxy)ethoxy]nicotinamide]
2 | 39.8 | COc1ncc(-c2cccc3c2C[C@H](NC(=O)c2ccc(OCCOCC(F)(F)F)nc2)CO3)cn1 [Example 163, N-[(3S)-5-(2-methoxypyrimidin-5-yl)-3,4-dihydro-2H-chromen-3-yl]-6-[2-(2,2,2-trifluoroethoxy)ethoxy]nicotinamide]
3 | 126 | COc1ncc(-c2cccc3c2C[C@H](NC(=O)c2ccc(C(=O)NCCCC(F)(F)F)nc2)CO3)cn1 [Example 171, N^5-[(3S)-5-(2-methoxypyrimidin-5-yl)-3,4-dihydro-2H-chromen-3-yl]-N^2-(4,4,4-trifluorobutyl)pyridine-2,5-dicarboxamide]
4 | 200 | COc1ncc(-c2cccc3c2C[C@H](NC(=O)c2ccnc(OCCOCC(F)(F)F)c2)CO3)cn1 [Example 172, N-[(3S)-5-(2-methoxypyrimidin-5-yl)-3,4-dihydro-2H-chromen-3-yl]-2-[2-(2,2,2-trifluoroethoxy)ethoxy]isonicotinamide]
5 | 200 | CCc1ncc(-c2cccc3c2C[C@H](NC(=O)c2ccc(C(=O)NCCC(F)(F)F)nc2)CO3)cn1 [Example 174, N^5-[(3S)-5-(2-ethylpyrimidin-5-yl)-3,4-dihydro-2H-chromen-3-yl]-N^2-(3,3,3-trifluoropropyl)pyridine-2,5-dicarboxamide]
6 | 2510 | CS(=O)(=O)c1ccc(-c2cccc3c2C[C@H](NC(=O)c2ccc(OCCOCC(F)(F)F)nc2)CO3)cn1 [Example 175, N-{(3S)-5-[6-(methylsulfonyl)pyridin-3-yl]-3,4-dihydro-2H-chromen-3-yl}-6-[2-(2,2,2-trifluoroethoxy)ethoxy]nicotinamide]
7 | 126 | N#Cc1ccc(-c2cccc3c2C[C@H](NC(=O)c2ccc(OCCOCC(F)(F)F)nc2)CO3)cn1 [Example 176, N-[(3S)-5-(6-cyanopyridin-3-yl)-3,4-dihydro-2H-chromen-3-yl]-6-[2-(2,2,2-trifluoroethoxy)ethoxy]nicotinamide]
8 | 50.1 | O=C(N[C@@H]1COc2cccc(-c3cnc(C4CC4)nc3)c2C1)c1ccc(OCCOCC(F)(F)F)nc1 [Example 177, N-[(3S)-5-(2-cyclopropylpyrimidin-5-yl)-3,4-dihydro-2H-chromen-3-yl]-6-[2-(2,2,2-trifluoroethoxy)ethoxy]nicotinamide]
9 | 63.1 | CCc1ncc(-c2cccc3c2C[C@H](NC(=O)c2ccc(OCCOCC(F)(F)F)nc2)CO3)cn1 [Example 178, N-[(3S)-5-(2-ethylpyrimidin-5-yl)-3,4-dihydro-2H-chromen-3-yl]-6-[2-(2,2,2-trifluoroethoxy)ethoxy]nicotinamide]
10 | 316 | COc1ncc(-c2cccc3c2C[C@H](NC(=O)c2ccc(OCCOCC(F)(F)F)nc2)CO3)cc1F [Example 180, N-[(3S)-5-(5-fluoro-6-methoxypyridin-3-yl)-3,4-dihydro-2H-chromen-3-yl]-6-[2-(2,2,2-trifluoroethoxy)ethoxy]nicotinamide]
11 | 63.1 | Cc1cncc(-c2cccc3c2C[C@H](NC(=O)c2ccc(OCCOCC(F)(F)F)nc2)CO3)n1 [Example 182, N-[(3S)-5-(6-methylpyrazin-2-yl)-3,4-dihydro-2H-chromen-3-yl]-6-[2-(2,2,2-trifluoroethoxy)ethoxy]nicotinamide]
12 | 316 | Cc1ncc(-c2cccc3c2C[C@H](NC(=O)c2ccc(C(=O)NCCC(F)(F)F)nc2)CO3)cn1 [Example 183, N^5-[(3S)-5-(2-methylpyrimidin-5-yl)-3,4-dihydro-2H-chromen-3-yl]-N^2-(3,3,3-trifluoropropyl)pyridine-2,5-dicarboxamide]
13 | 501 | COc1ncc(-c2cccc3c2C[C@H](NC(=O)c2ccc(OCCOC(C)C)nc2)CO3)cn1 [Example 184, 6-(2-isopropoxyethoxy)-N-[(3S)-5-(2-methoxypyrimidin-5-yl)-3,4-dihydro-2H-chromen-3-yl]nicotinamide]
14 | 316 | Cc1ncc(-c2cccc3c2C[C@H](NC(=O)c2ccc(OCCOC(C)C)nc2)CO3)cn1 [Example 185, 6-(2-isopropoxyethoxy)-N-[(3S)-5-(2-methylpyrimidin-5-yl)-3,4-dihydro-2H-chromen-3-yl]nicotinamide]
15 | 1580 | COc1ncc(-c2cccc3c2C[C@H](NC(=O)c2ccc(C(=O)NCCCOC(C)C)nc2)CO3)cn1 [Example 187, N^2-(3-isopropoxypropyl)-N^5-[(3S)-5-(2-methoxypyrimidin-5-yl)-3,4-dihydro-2H-chromen-3-yl]pyridine-2,5-dicarboxamide]
16 | 251 | Cc1ncc(-c2cccc3c2C[C@H](NC(=O)c2ccc(C(=O)NCCCC(F)(F)F)nc2)CO3)cn1 [Example 188, N^5-[(3S)-5-(2-methylpyrimidin-5-yl)-3,4-dihydro-2H-chromen-3-yl]-N^2-(4,4,4-trifluorobutyl)pyridine-2,5-dicarboxamide]
17 | 79.4 | Cc1ncc(-c2cccc3c2C[C@H](NC(=O)c2ccc(OCCOCC(F)(F)F)nc2)CO3)cn1 [Example 189, N-[(3S)-5-(2-methylpyrimidin-5-yl)-3,4-dihydro-2H-chromen-3-yl]-6-[2-(2,2,2-trifluoroethoxy)ethoxy]nicotinamide]
18 | 7940 | COc1ncc(-c2cccc3c2C[C@H](NC(=O)c2ccnc(OCCOCC(F)(F)F)c2)CC3)cn1 [Example 190, N-[(2R)-8-(2-methoxypyrimidin-5-yl)-1,2,3,4-tetrahydronaphthalen-2-yl]-2-[2-(2,2,2-trifluoroethoxy)ethoxy]isonicotinamide]
19 | 794 | COc1ncc(-c2cccc3c2C[C@H](NC(=O)c2ccc(C(=O)N(C)CC(F)(F)F)nc2)CO3)cn1 [Example 191, N^5-[(3S)-5-(2-methoxypyrimidin-5-yl)-3,4-dihydro-2H-chromen-3-yl]-N^2-methyl-N^2-(2,2,2-trifluoroethyl)pyridine-2,5-dicarboxamide]

More lines, now with the values behind:

Row | SMILES | IC50 [nM]
20 | Cc1ncc(-c2cccc3c2C[C@H](NC(=O)c2ccc(OCC4CCCO4)nc2)CC3)cn1 (stereo partly drawn) [Example 161, N-[(2R)-8-(2-methylpyrimidin-5-yl)-1,2,3,4-tetrahydronaphthalen-2-yl]-6-(tetrahydrofuran-2-ylmethoxy)nicotinamide] | 7940
21 | O=C(N[C@@H]1CCc2cccc(-c3cccnc3F)c2C1)c1ccc(OCC2COCCO2)nc1 (stereo partly drawn) [Example 164, 6-(1,4-dioxan-2-ylmethoxy)-N-[(2R)-8-(2-fluoropyridin-3-yl)-1,2,3,4-tetrahydronaphthalen-2-yl]nicotinamide] | 1000
22 | COc1cc(-c2cccc3c2C[C@H](NC(=O)c2ccc(OCC4COCCO4)nc2)CO3)ccn1 (stereo partly drawn) [Example 165, 6-(1,4-dioxan-2-ylmethoxy)-N-[(3S)-5-(2-methoxypyridin-4-yl)-3,4-dihydro-2H-chromen-3-yl]nicotinamide] | 158
23 | COc1ncc(-c2cccc3c2C[C@H](NC(=O)c2ccc(OCC4COCCO4)nc2)CO3)cc1F (stereo partly drawn) [Example 166, 6-(1,4-dioxan-2-ylmethoxy)-N-[(3S)-5-(5-fluoro-6-methoxypyridin-3-yl)-3,4-dihydro-2H-chromen-3-yl]nicotinamide] | 501
24 | COc1ncc(-c2cccc3c2C[C@H](NC(=O)c2ccc(C(=O)NCCC(F)(F)F)nc2)CC3)cn1 [Example 167, N^5-[(2R)-8-(2-methoxypyrimidin-5-yl)-1,2,3,4-tetrahydronaphthalen-2-yl]-N^2-(3,3,3-trifluoropropyl)pyridine-2,5-dicarboxamide] | 398
25 | CC#CCOc1ccc(C(=O)N[C@@H]2CCc3cccc(-c4cnc(OC)nc4)c3C2)cn1 [Example 168, 6-(but-2-yn-1-yloxy)-N-[(2R)-8-(2-methoxypyrimidin-5-yl)-1,2,3,4-tetrahydronaphthalen-2-yl]nicotinamide] | 6310
26 | O=C(N[C@@H]1COc2cccc(-c3ccc4nccn4c3)c2C1)c1ccc(OC2CCOCC2)nc1 [Example 169, N-[(3S)-5-imidazo[1,2-a]pyridin-6-yl-3,4-dihydro-2H-chromen-3-yl]-6-(tetrahydro-2H-pyran-4-yloxy)nicotinamide] | 200
27 | COc1ncc(-c2cccc3c2C[C@H](NC(=O)c2ccc(C(=O)NC4CCC(F)(F)CC4)nc2)CO3)cn1 [Example 170, N^2-(4,4-difluorocyclohexyl)-N^5-[(3S)-5-(2-methoxypyrimidin-5-yl)-3,4-dihydro-2H-chromen-3-yl]pyridine-2,5-dicarboxamide] | 251
28 | Cc1ncc(-c2cccc3c2C[C@H](NC(=O)c2ccc(C(=O)N(C)CC(F)(F)F)nc2)CO3)cn1 [Example 173, N^2-methyl-N^5-[(3S)-5-(2-methylpyrimidin-5-yl)-3,4-dihydro-2H-chromen-3-yl]-N^2-(2,2,2-trifluoroethyl)pyridine-2,5-dicarboxamide] | 1580
29 | COc1ncc(-c2cccc3c2C[C@H](NC(=O)c2ccc(C(=O)NCCC(F)(F)F)nc2)CO3)cc1F [Example 179, N^5-[(3S)-5-(5-fluoro-6-methoxypyridin-3-yl)-3,4-dihydro-2H-chromen-3-yl]-N^2-(3,3,3-trifluoropropyl)pyridine-2,5-dicarboxamide] | 200
30 | COc1ncc(-c2cccc3c2C[C@H](NC(=O)c2ccc(S(=O)(=O)C4CCCC4)nc2)CO3)cn1 [Example 181, 6-(cyclopentylsulfonyl)-N-[(3S)-5-(2-methoxypyrimidin-5-yl)-3,4-dihydro-2H-chromen-3-yl]nicotinamide] | 501
31 | Cc1ncc(-c2cccc3c2C[C@H](NC(=O)c2ccc(C(=O)NCCCOC(C)C)nc2)CO3)cn1 [Example 186, N^2-(3-isopropoxypropyl)-N^5-[(3S)-5-(2-methylpyrimidin-5-yl)-3,4-dihydro-2H-chromen-3-yl]pyridine-2,5-dicarboxamide] | 2000

Reference: patent publication US8143408B2, “N-(8-heteroaryltetrahydronaphtalene-2yl) or N-(5-heteroarylchromane-3-yl) carboxamide derivatives for the treatment of pain” (AstraZeneca AB, priority 2007, dated 2012)
